Reference: patent US10738028B2, “Spiro three-membered ring, spiro five-membered ring peptide deformylase inhibitor and use thereof in antibacteria and anti-tumor” (priority 2016, dated 2020)

Columns and labels:
Format in all cases: cell-based
[1] = tested on: methicillin-resistant Staphylococcus epidermidis (MRSE); assay: MIC, two-fold agar dilution (CLSI), clinical isolates
Procedure, shortened: (§1)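 Following the American Clinical and Laboratory Standards Institute procedure, agar two-fold dilution served to determine minimum inhibitory concentrations.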

[2] = tested on: methicillin-resistant Staphylococcus aureus (MRSA); assay: as above
Procedure, shortened: as §1

[3] = tested on: methicillin-sensitive Staphylococcus epidermidis (MSSE); assay: as above
Procedure, shortened: as §1

[4] = tested on: Moraxella catarrhalis (BCA); assay: as above
Procedure, shortened: as §1

[5] = tested on: Escherichia coli (including ESBLs, non-ESBLs); assay: as above
Procedure, shortened: as §1

[6] = tested on: Streptococcus pneoumoniae (SPN); assay: as above
Procedure, shortened: as §1

[7] = tested on: Enterococcus faecium (EFM); assay: as above
Procedure, shortened: as §1

[8] = tested on: Enterococcus faecalis (EFA); assay: as above
Procedure, shortened: as §1

[9] = tested on: methicillin-sensitive Staphylococcus aureus (MSSA); assay: as above
Procedure, shortened: as §1

[10] = tested on: MGC-803 gastric cancer cell line; assay: CCK-8 proliferation inhibition; details: concentration of 30 μM
Procedure, shortened: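 Cells were seeded at 2000 cells/well and cultured overnight at 37° C, 5% CO2, then exposed for 72 hours to compounds diluted from DMSO stocks. Controls received 1‰ DMSO. CCK-8 (1:10 diluted) replaced the medium. MGC-803 and Jurkat were grown in 1640, PC3 in F12, and MCF-7 in DMEM high glucose, each with 10% newborn bovine serum.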

[11] = tested on: A549 lung cancer cell line; assay: CCK-8 proliferation inhibition; details: concentration of 30 μM
Procedure, shortened: (§2)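 Plating at 2000 cells/well, then incubation overnight at 37° C. Next, a range of compound concentrations for 72 hours (control 1‰ DMSO). Finally, medium decanted and CCK-8 diluted 1:10 added.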

[12] = tested on: BEL-7402 liver cancer cell line; assay: CCK-8 proliferation inhibition; details: concentration of 30 μM, 72 hours, 30 µM
Procedure, shortened: as §2

[13] = tested on: HCT-116 colorectal cancer cell line; assay: CCK-8 proliferation inhibition; details: concentration of 30 μM, 72 hours, CCK-8
Procedure, shortened: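 HCT-116 cells, seeded at 2000 cells/well in McCoy's 5A with 10% newborn bovine serum, were cultured overnight at 37° C., 5% CO2, then exposed to compound dilutions in medium for 72 hours. Viability was read with 1:10 diluted CCK-8; controls received 1‰ DMSO.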

Work on `O=C(C[C@@H](CC1CCCC1)C(=O)N1CC2(CC2)C[C@H]1C(=O)Nc1ccncn1)NO` [Example 63] yielded an Anti-bacterial activity (MIC), strain MRSE 15-1 ([1]; clinical isolate MRSE 15-1) of 0.25 µg/mL, an Anti-bacterial activity (MIC), strain MRSE 15-2 ([1]; clinical isolate MRSE 15-2) of 0.25 µg/mL and an Anti-bacterial activity (MIC), strain MRSE 15-3 ([1]; clinical isolate MRSE 15-3) of 0.25 µg/mL. It also gave an Anti-bacterial activity (MIC), strain MRSE 15-7 ([1]; clinical isolate MRSE 15-7) of 0.25 µg/mL, an Anti-bacterial activity (MIC), strain MRSA 15-1 ([2]; clinical isolate MRSA 15-1) of 0.125 µg/mL and an Anti-bacterial activity (MIC), strain MRSA 15-2 ([2]; clinical isolate MRSA 15-2) of 0.25 µg/mL. The Anti-bacterial activity (MIC), strain MRSA 15-3 ([2]; clinical isolate MRSA 15-3) was 0.125 µg/mL, the Anti-bacterial activity (MIC), strain MRSA 15-4 ([2]; clinical isolate MRSA 15-4) was 0.25 µg/mL and the Anti-bacterial activity (MIC), strain MSSE 15-3 ([3]; clinical isolate MSSE 15-3) was 0.125 µg/mL. The Anti-bacterial activity (MIC), strain MSSE 15-4 ([3]; clinical isolate MSSE 15-4) was 0.25 µg/mL, the Anti-bacterial activity (MIC), strain MSSE 15-5 ([3]; clinical isolate MSSE 15-5) was 0.25 µg/mL and the Anti-bacterial activity (MIC), strain MSSE 15-6 ([3]; clinical isolate MSSE 15-6) was 0.125 µg/mL. For the same compound, the Anti-bacterial activity (MIC), strain BCA 14-1 ([4]; clinical isolate BCA 14-1) was 2 µg/mL, the Anti-bacterial activity (MIC), strain BCA 14-4 ([4]; clinical isolate BCA 14-4) was 2 µg/mL and the Anti-bacterial activity (MIC), strain BCA 14-5 ([4]; clinical isolate BCA 14-5) was 0.25 µg/mL. For the same compound, the Anti-bacterial activity (MIC), strain BCA 14-6 ([4]; clinical isolate BCA 14-6) was 0.25 µg/mL, the Anti-bacterial activity (MIC), strain BCA 14-7 ([4]; clinical isolate BCA 14-7) was 4 µg/mL and the Anti-bacterial activity (MIC), strain BCA 14-8 ([4]; clinical isolate BCA 14-8) was 0.5 µg/mL. It also gave an Anti-bacterial activity (MIC), strain BCA 14-10 ([4]; clinical isolate BCA 14-10) of 0.5 µg/mL, an Anti-bacterial activity (MIC), strain ECO+ 15-1 ([5]; clinical isolate ECO+ 15-1) of 16 µg/mL and an Anti-bacterial activity (MIC), strain ECO+ 15-2 ([5]; clinical isolate ECO+ 15-2) of 32 µg/mL. The Anti-bacterial activity (MIC), strain ECO+ 15-3 ([5]; clinical isolate ECO+ 15-3) was 16 µg/mL, the Anti-bacterial activity (MIC), strain ECO+ 15-4 ([5]; clinical isolate ECO+ 15-4) was 16 µg/mL and the Anti-bacterial activity (MIC), strain ECO− 15-1 ([5]; clinical isolate ECO− 15-1) was 16 µg/mL. The Anti-bacterial activity (MIC), strain ECO− 15-2 ([5]; clinical isolate ECO− 15-2) was 16 µg/mL, the Anti-bacterial activity (MIC), strain ECO− 15-3 ([5]; clinical isolate ECO− 15-3) was 32 µg/mL and the Anti-bacterial activity (MIC), strain ECO− 15-4 ([5]; clinical isolate ECO− 15-4) was 16 µg/mL. It also gave an Anti-bacterial activity (MIC), strain SPN 16-2 ([6]; clinical isolate SPN 16-2) of 0.5 µg/mL, an Anti-bacterial activity (MIC), strain SPN 16-4 ([6]; clinical isolate SPN 16-4) of 0.5 µg/mL and an Anti-bacterial activity (MIC), strain EFM 15-1 ([7]; clinical isolate EFM 15-1) of over 32 µg/mL. The Anti-bacterial activity (MIC), strain EFM 15-2 ([7]; clinical isolate EFM 15-2) was over 32 µg/mL, the Anti-bacterial activity (MIC), strain EFM 15-3 ([7]; clinical isolate EFM 15-3) was over 32 µg/mL and the Anti-bacterial activity (MIC), strain EFM 15-4 ([7]; clinical isolate EFM 15-4) was 0.5 µg/mL. It also gave an Anti-bacterial activity (MIC), strain EFM 15-5 ([7]; clinical isolate EFM 15-5) of 0.25 µg/mL, an Anti-bacterial activity (MIC), strain EFM 15-6 ([7]; clinical isolate EFM 15-6) of 0.25 µg/mL and an Anti-bacterial activity (MIC), strain EFA 15-1 ([8]; clinical isolate EFA 15-1) of over 32 µg/mL. For the same compound, the Anti-bacterial activity (MIC), strain EFA 15-2 ([8]; clinical isolate EFA 15-2) was over 32 µg/mL, the Anti-bacterial activity (MIC), strain EFA 15-3 ([8]; clinical isolate EFA 15-3) was over 32 µg/mL and the Anti-bacterial activity (MIC), strain EFA 15-4 ([8]; clinical isolate EFA 15-4) was over 32 µg/mL. For the same compound, the Anti-bacterial activity (MIC), strain EFA 15-5 ([8]; clinical isolate EFA 15-5) was over 32 µg/mL, the Anti-bacterial activity (MIC), strain EFA 15-6 ([8]; clinical isolate EFA 15-6) was over 32 µg/mL and the Anti-bacterial activity (MIC), strain EFA 15-9 ([8]; clinical isolate EFA 15-9) was 4 µg/mL. The Anti-bacterial activity (MIC), strain MSSA 15-3 ([9]; clinical isolate MSSA 15-3) was 0.25 µg/mL, the Anti-bacterial activity (MIC), strain MSSA 15-4 ([9]; clinical isolate MSSA 15-4) was 0.125 µg/mL and the Anti-bacterial activity (MIC), strain MSSA 15-5 ([9]; clinical isolate MSSA 15-5) was 0.125 µg/mL. For the same compound, the Anti-bacterial activity (MIC), strain MSSA 15-6 ([9]; clinical isolate MSSA 15-6) was 16 µg/mL, the inhibition at 30 µM ([10]; Homo sapiens, MGC-803, 72 h) was over 50% and the “Inhibition of proliferation, Gastric cancer MGC-803” value ([10]; 72 hours, 30 µM) was 58%. The inhibition at 30 µM ([11]; Homo sapiens, A549, 72 h) was over 50%, the “Inhibition of proliferation, Lung cancer A549” value ([11]; 72 hours, 30 µM) was 63% and the “Inhibition of proliferation, Liver cancer BEL-7402” value [12] was 74%. It also gave an inhibition at 30 µM ([13]; Homo sapiens, HCT-116, 72 h, read-out: HCT116 inhibition rate/%) of over 50% and an HCT116 inhibition rate/% ([13]; 30 µM) of 68%.
